In article PMC7011955, “Synthesis and biological evaluation of certain hydrazonoindolin-2-one derivatives as new potent anti-proliferative agents” (Journal of Enzyme Inhibition and Medicinal Chemistry, 2018):
“Also recorded” adds a separate entry of the source. Where two headings read alike, the source gives them in different places.

Experiments:
[1] = tested on: phosphorylated retinoblastoma (Rb) protein in A-549 cells; assay: Immunofluorescent imaging of phosphorylated Rb protein; type: cell-based, human; details: for levels of phosphorylated Rb protein: A-549, less than 100 nM to 50 µM; for IC50: Homo sapiens, A549
Procedure: (§1) Cell cycle effects of the synthesised compounds 7b and 10e were determined adopting the reported procedures[14]^,[15].
(§2) In this study, cancer cells derived from lung adenocarcinoma (A-549) were used to evaluate the effects of compounds 7b and 10e on various aspects of the cell cycle progression. Both immunofluorescent imaging of phosphorylated Rb protein and total DNA content of each cell were explored to determine the activity of compounds 7b and 10e over a range of concentrations less than 100 nM to 50 µM (Figures 3–5).

[2] = tested on: colon cancer HT-29 cell line; assay: CellTiter-Glo Luminescent cell viability assay, anti-proliferative activity, HT-29; type: cell-based; details: Homo sapiens, mean ± SD of four separate experiments
[3] = tested on: breast cancer ZR-75 cell line; assay: CellTiter-Glo Luminescent cell viability assay, anti-proliferative activity, ZR-75; type: cell-based; details: Homo sapiens, ZR75; 30 µM single concentration, quadruplicate; read-out: Growth inhibition % ZR-75
Procedure: (§3) The anti-proliferative activity of the title compounds 3a-e, 5a-e, 7a-c, and 10a-l towards cancer cell lines, normal cell lines, and multidrug-resistant lung cancer NCI-H69AR cell line was determined using CellTiter-Glo™ Luminescent cell viability assay according to the previously published procedures[14]^,[15].
(§4) The cancer cell growth inhibitory activity of the synthesised 25 compounds 3a-e, 5a-e, 7a-c, and 10a-l was evaluated in vitro towards three human cancer cell lines, namely lung cancer A-549, human colon cancer HT-29, and breast cancer ZR-75 cell lines using CellTiter-Glo™ Luminescent cell viability assay. Sunitinib was included in this assay as a reference drug.
(§5) The prepared hydrazonoindolin-2-ones were first evaluated at preliminary anti-proliferative assay against the three cancer cell lines in quadruplicate at a single concentration of 30 µM. The data presented as percentage growth inhibition (GI%) caused by the test compounds (Table 1).

[4] = tested on: Fibroblast Swiss-3t3 cells; assay: Cell growth inhibition, non-tumorigenic Swiss-3t3; type: cell-based, mice; details: Mus musculus, maximum 25 µM, quadruplicate
Procedure: as §3
(§6) The cell growth inhibitory activity of compounds 7b and 10e was examined towards three non-tumorigenic cell lines to estimate their selectivity for tumor cells. A-549 human non-small cell lung cancer (NSCLC) cell line was included in the assay for comparison. […] IEC-6 cells derived from rat intestine show morphologic and karyotypic features of normal intestinal epithelial cells. Fibroblasts derived from embryonic tissue from mice (Swiss-3t3) are both non-tumorigenic and contact inhibited. Compounds 7b and 10e were tested quadruplicate at maximum concentrations of 25 µM, with subsequent 10 serially diluted concentrations.

[5] = tested on: NCI-H69AR cell line (expresses ABCC1 efflux pump); assay: Growth inhibition of multidrug resistant lung cancer cell line; type: cell-based
Procedure: as §3
The anti-proliferative activity of compounds 7b and 10e was evaluated towards multidrug resistant lung cancer cell line (NCI-H69AR), which expresses the ABCC1 efflux pump protein. […] Furthermore, the H69AR cells manifested a lesser degree of resistance to the reference drug, Sunitinib (1.9-fold less sensitive).

Intestine IEC-6 cells = assay: Cell growth inhibition, non-tumorigenic IEC-6; type: cell-based; details: Rattus norvegicus, maximum 25 µM, quadruplicate
Procedure: as §3, §6

[6] = tested on: A-549, ZR-75 and HT-29 cell lines; assay: Average anti-proliferative activity over the three cancer cell lines; type: cell-based, human; details: average over A-549, ZR-75, HT-29; for Average growth inhibition % / inhibition at 30 µM: 30 µM; for inhibition at 30 µM / IC50: Homo sapiens; for inhibition at 30 µM: read-out: Average growth inhibition %
Procedure: as §3, §4, §5

A-549 cells [7] = assay: Reduction in total cell number, DAPI labeling and imaging cytometry; type: cell-based; details: Homo sapiens, A549
Procedure: as §1, §2
Figure 3. Effects on number and cell cycle distribution. A-549 cells were treated with dose curve. Compound 7b (left) or 10e (right). […]

Breast MCF-10A cells = assay: Cell growth inhibition, non-tumorigenic MCF-10A; type: cell-based; details: Homo sapiens, maximum 25 µM, quadruplicate
Procedure: as §3, §6

[8] = tested on: breast cancer ZR-75 cell line; assay: CellTiter-Glo Luminescent cell viability assay, anti-proliferative activity, ZR-75; type: cell-based, human
[9] = tested on: colon cancer HT-29 cell line; assay: CellTiter-Glo Luminescent cell viability assay, anti-proliferative activity, HT-29; type: cell-based, human; details: Homo sapiens, HT-29; 30 µM single concentration, quadruplicate; read-out: Growth inhibition % HT-29
Procedure: as §3, §4, §5

[10] = tested on: IEC-6, MCF-10A, Swiss-3t3 vs A-549 cell lines; assay: Mean tumor selectivity index, non-tumorigenic lines vs A-549; type: cell-based; details: non-tumorigenic IEC-6, MCF-10A
Description: as §6

A-549 cells [11] = assay: Cell cycle distribution by DNA content; type: cell-based, human
Procedure: as §1, §2
Figure 3. Effects on number and cell cycle distribution. A-549 cells were treated with dose curve. Compound 7b (left) or 10e (right). Cell number per cell cycle was determined by DNA content by DAPI fluorescent labeling and imaging cytometry following 48 h treatment.

[12] = tested on: lung cancer A-549 cell line; assay: CellTiter-Glo Luminescent cell viability assay, anti-proliferative activity, A-549; type: cell-based, human; details: for inhibition at 30 µM: A549, 30 µM single concentration, read-out: Growth inhibition % A-549
Procedure: as §3, §4, §5

[13] = A-549, 24 h treatment, read-out: IC50 for reduction in Rb phosphorylation, 24 h
[14] = A-549, 48 h treatment, read-out: IC50 for reduction in Rb phosphorylation, 48 h
[15] = A-549, 24 h treatment, read-out: IC50 for reductions in the total cell number, 24 h
[16] = A-549, 48 h treatment, read-out: IC50 for reductions in the total cell number, 48 h
[17] = Homo sapiens, ZR75, mean ± SD of four separate experiments
[18] = Homo sapiens, A549, mean ± SD of four separate experiments, read-out: IC50 A-549
[19] = Homo sapiens, A549, selectivity assay, maximum 25 µM, quadruplicate, read-out: IC50 NSCLC A-549
[20] = Homo sapiens, A549, sensitive line in comparison with resistant NCI-H69AR, read-out: IC50 Sensitive A-549

| IC50 [1, 13] | IC50 [2] | IC50 [5] | melting point | IC50 [6] | IC50 [8, 17] | IC50 [12, 18] | IC50 [12, 19] | IC50 [12, 20] | SMILES | inhibition at 30 µM [3] | Average growth inhibition % [6] | inhibition at 30 µM [6] | inhibition at 30 µM [9] | Mean tumor selectivity [10] | Cell cycle effects (A-549 cells [11]) | inhibition at 30 µM ([12]; Homo sapiens, quadruplicate) | further results |
| --- | --- | --- | --- | --- | --- | --- | --- | --- | --- | --- | --- | --- | --- | --- | --- | --- | --- |
| 12.1 ± 0.6 µM | 2.75 ± 0.31 µM | 16 µM | > 300 °C | 2.14 µM | 1.37 ± 0.23 µM | 2.29 ± 0.21 µM | 3.84 ± 0.67 µM | 3.8 ± 0.67 µM | O=C1Nc2ccc(Cl)cc2C1=NN=Cc1ccn[nH]1 [Compound 7b, 3-(((1H-pyrazol-5-yl)methylene)hydrazono)-5-chloroindolin-2-one] | 82.3 ± 15.2% | 89.6% | > 80% | 94.9 ± 1.8% | 1.6 | decrease in the percentage of cells in the G1 phase of the cell cycle with corresponding increase in the G2/M-phases; also recorded: G1 decreased and G2/M-phases increased | 91.5 ± 1.3% | levels of phosphorylated Rb protein [1]: significantly reduced in a dose-dependent manner; IC50 [1, 14]: 13.6 ± 0.6 µM; IC50 [4]: 6.85 ± 0.76 µM; IC50 (Intestine IEC-6 cells): 8.7 ± 4.32 µM; IC50 (A-549 cells [7]; [15]): 12.7 ± 13.6 µM; IC50 (A-549 cells [7]; [16]): 8.08 ± 0.95 µM; IC50 (Breast MCF-10A cells): 3.42 ± 0.45 µM |
| 7.59 ± 0.38 µM | 7.25 ± 0.83 µM | 16 µM | 292 to 294 °C | 4.66 µM | 1.95 ± 1.03 µM | 4.79 ± 0.45 µM | 4.13 ± 0.61 µM | 4.1 ± 0.61 µM | O=C1Nc2ccc(Cl)cc2C1=NNc1nc(-c2ccccc2)cs1 [Compound 10e, 5-Chloro-3–(2-(4-phenylthiazol-2-yl)hydrazono)indolin-2-one] | 89.3 ± 7.2% | 85.1% | > 80% | 85.7 ± 10.2% | 1.8 | increase in the percentage of cells in the G1 phase of the cell cycle with corresponding decreases in S- and G2/M phases; also recorded: G1 increased and G2/M-phases decreased | 80.4 ± 6% | levels of phosphorylated Rb protein [1]: significantly reduced in a dose-dependent manner; IC50 [1, 14]: 12.5 ± 2.1 µM; IC50 [4]: 8.51 ± 1.01 µM; IC50 (Intestine IEC-6 cells): 8.98 ± 1.25 µM; IC50 (A-549 cells [7]; [15]): 7.38 ± 1.04 µM; IC50 (A-549 cells [7]; [16]): 7.27 ± 1.15 µM; IC50 (Breast MCF-10A cells): 5.37 ± 0.61 µM |
| 3.18 ± 0.07 µM | 5.87 ± 0.3 µM | 5.8 ± 0.52 µM |  |  |  | 10.1 ± 0.8 µM | 3.06 ± 0.9 µM | 3.1 ± 0.9 µM | CCN(CC)CCNC(=O)c1c(C)[nH]c(/C=C2\C(=O)Nc3ccc(F)cc32)c1C [Sunitinib, reference compound] | 90.7 ± 4.5% |  | 78.7% | 85.7 ± 2.7% | 1.4 | G1 decreased and G2/M-phases increased | 59.5 ± 2.3% |  |
|  | 8.49 ± 1.01 µM |  | 266 to 268 °C | 6.25 µM | 4.2 ± 0.57 µM | 6.07 ± 0.9 µM |  |  | COC(=O)c1ccc(C=NN=C2C(=O)Nc3ccc(Cl)cc32)cc1 [Compound 3c, Methyl 4-(((5-chloro-2-oxoindolin-3-ylidene)hydrazono)methyl)benzoate] | 98.9 ± 2.1% | 96.1% | > 80% | 95.9 ± 4.7% |  |  | 93.5 ± 2.8% |  |
|  | 15.2 ± 1.1 µM |  | > 300 °C | 13 µM | 10.9 ± 2.81 µM | 12.8 ± 1.4 µM |  |  | Cc1ccc(-c2csc(NN=C3C(=O)Nc4ccc(Br)cc43)n2)cc1 [Compound 10j, 5-Bromo-3–(2-(4–(4-tolyl)thiazol-2-yl)hydrazono)indolin-2-one] | 73.1 ± 3.5% | 83.0% | > 80% | 90.1 ± 5.3% |  |  | 85.9 ± 9.1% |  |
|  | 8.26 ± 0.86 µM |  | 285 to 287 °C | 5.45 µM | 1.96 ± 0.85 µM | 6.13 ± 0.76 µM |  |  | O=C1Nc2ccc(Br)cc2C1=NNc1nc(-c2ccccc2)cs1 [Compound 10i, 5-Bromo-3–(2-(4-phenylthiazol-2-yl)hydrazono)indolin-2-one] | 97.5 ± 3.1% | 95.4% | > 80% | 96.3 ± 5.9% |  |  | 92.3 ± 6.2% |  |
|  | > 30 µM |  | 283 to 285 °C | > 27.8 µM | 23.3 µM | > 30 µM |  |  | COC(=O)c1ccc(C=NN=C2C(=O)Nc3ccc(Br)cc32)cc1 [Compound 3e, Methyl 4-(((5-bromo-2-oxoindolin-3-ylidene)hydrazono)methyl)benzoate] | 55.9 ± 18.2% |  | 41.1% | 26.3 ± 24.4% |  |  | -4.2 ± 9.3% | IC50 ([12]; mean ± SD of four separate experiments, read-out: IC50 A-549): > 30 µM |
|  | > 30 µM |  | 270 to 272 °C | > 28.7 µM | > 30 µM | 26.1 ± 4.47 µM |  |  | CC(=O)c1ccc(C=NN=C2C(=O)Nc3ccc(Br)cc32)cc1 [Compound 3d, 3-((4-Acetylbenzylidene)hydrazono)-5-bromoindolin-2-one] | 53.9 ± 14.4% |  | 42.7% | 56.8 ± 15.1% |  |  | 17.3 ± 10.2% | IC50 ([8]; mean ± SD of four separate experiments, listed as 4d): > 30 µM |
|  | 8.51 µM |  | 248 to 250 °C | 7.49 µM | 2.93 ± 0.46 µM | 3.54 ± 0.42 µM |  |  | Cc1csc(C=NN=C2C(=O)Nc3ccc(Br)cc32)n1 [Compound 5e, 5-Bromo-3-(((4-methylthiazol-2-yl)methylene)hydrazono)indolin-2-one] | 96.9 ± 2.4% |  | 97.1% | 99 ± 1.1% |  |  | 95.3 ± 3.1% |  |
